The results in this text go back to US5178662A, “Benzaldehyde acetal compounds, preparation process thereof, and herbicidal compositions containing the same as active ingredients” (Mitsui Toatsu Chemicals, Inc., priority 1990, dated 1993).

Data set [1] deals with ALS (acetolactate syntase) from barnyardgrass seedlings. Nature of the data set: ALS (acetolactate syntase) inhibition test, barnyardgrass enzyme. It is filed as biochemical. As to conditions: 10,000 ppm (0.5 μg/0.5 ml) of compound; 1 hour at 30° C.; absorbance at 525 nm. How it is done: (§1) To determine the selectivity in enzyme level between crops and weeds, an ALS inhibition test was conducted using pea as a typical broadleaf crop and barnyardgrass as a representative gramineous weeds.
(§2) After seeds of pea and barnyardgrass were allowed to germinate at 25° C. for 8-14 days in a dark place, partially-purified suspensions (Suspensions A) of acetolactate syntase were separately obtained from the seedlings in accordance with the procedures described in the literature, Plant Physiology, 75, 827-831. In a test tube, 0.5 mg of one of test compounds was weighed, followed by the addition of 0.15 ml of a 20 mM K2 HPO4 solution and 0.25 ml of a reaction substrate medium which consisted of 40 mM of K2 HPO4, 40 mM of sodium pyruvate, 1 mM of TPP, 1 mM of MgCl2 and 20 μM of FAD so that 0.4 ml of a reaction solution (Solution B) was prepared. Added to 0.4 ml of Solution B was 0.1 ml of Suspension A. After the resultant mixture was shaken for 1 hour in a thermostat water bath controlled at 30° C., 50 μl of 6N sulfuric acid were added to terminate the reaction.
(§3) Next, the test tube with the reaction-terminated liquid mixture contained therein was transferred into a thermostat water bath controlled at 60° C. and was heated for 15 minutes. Thereafter, 0.5 ml of a 0.5% creatine solution and 0.5 ml of a 5% alkaline α-naphthol solution were added, and the resultant mixture was maintained at 60° C. for 15 minutes. As a result, the test solution developed a pink-to-red color. After the above operation, the absorbance of the test solution at 525 nm was measured by a spectrophotometer (Absorbance 1 of Test Compound).
(§4) Further, the absorbance (Absorbance 2 of Blank) of a solution obtained by subjecting a portion of Solution B to the above procedures without addition of any test compound and the absorbance (Absorbance 3 of sulfuric acid) of another solution obtained by subjecting another portion of Solution B to the above procedures which using 50 μl of 6N sulfuric acid as a test compound were also measured.

The subject of data set [2] is ALS (acetolactate syntase) from pea seedlings. Nature of the data set: ALS (acetolactate syntase) inhibition test, pea enzyme. Format: biochemical. To be noted: 10,000 ppm (0.5 μg/0.5 ml) of compound; 1 hour at 30° C.; absorbance at 525 nm. The method, then: as §1, §2, §3, §4
Data set [3] has as its system Amaranth (Amaranthus viridis). Briefly: Upland soil application test, amaranth. It is filed as in vivo. To be noted: 1200 h, soil application one day after seeding, 50 g ai/a, wettable powder, fresh weight on 50th day after spray, read-out: Herbicidal effects Amaranth (Amaranthus viridis). The method, then: (§5) Resin-made 1/1000-are pots were filled with the soil of an upland field. After they were fertilized, cotton and soybean were seeded and 3 cm soil covering was applied. In addition, amaranth, common lambs-quarters, barnyardgrass, green foxtail, large crabgrass and johnsongrass were seeded and 1 cm soil covering was applied. One day later, a wettable powder prepared from a predetermined amount of each test compound in a similar manner to the procedures described in Formulation Example 1 was diluted with water and then sprayed evenly at an application rate equal to 10 l per are onto the surface of the soil by means of a pressure-operated sprayer. The weeds and crops were allowed to grow in a green house and influence to them were observed on the 50th day after the spray. The degree of damages of each test plant and the degree of injury to each crop were determined by measuring fresh weight in each group and indicated by % calculated according to the following formula. [formula]

For data set [4], the system named is common lambsquarters. Nature of the data set: Upland soil application test, common lambsquarters. Format: in vivo. As to conditions: Chenopodium album, 1200 h; soil application one day after seeding, 50 g ai/a, wettable powder, fresh weight on 50th day after spray; read-out: Herbicidal effects Common lambquarters. How it is done: as §5
Data set [5] relates to Barnyardgrass (Echinochloa crusgalli). Briefly: Upland soil application test, barnyardgrass. It is filed as in vivo. As to conditions: Echinochloa crus-galli, 1200 h; soil application one day after seeding, 50 g ai/a, wettable powder, fresh weight on 50th day after spray; read-out: Herbicidal effects Barnyardgrass (Echinochloa crusgalli). How it is done: as §5
The test system of data set [6] is Foxtail (Setaria viridis). Nature of the data set: Upland soil application test, green foxtail. It is filed as in vivo. To be noted: 1200 h, soil application one day after seeding, 50 g ai/a, wettable powder, fresh weight on 50th day after spray, read-out: Herbicidal effects Foxtail (Setaria viridis). How it is done: as §5
The subject of data set [7] is Crabgrass (Digitaria adscendens). Nature of the data set: Upland soil application test, large crabgrass. Format: in vivo. As to conditions: 1200 h, soil application one day after seeding, 50 g ai/a, wettable powder, fresh weight on 50th day after spray, read-out: Herbicidal effects Crabgrass (Digitaria adscendens). How it is done:
as §5

Data set [8] concerns Johnsongrass. Nature of the data set: Upland soil application test, johnsongrass. Format: in vivo. To be noted: Sorghum halepense, 1200 h; soil application one day after seeding, 50 g ai/a, wettable powder, fresh weight on 50th day after spray; read-out: Herbicidal effects Johnsongrass. How it is done:
as §5

In data set [9] the test system is Soybean (Glycine max). Nature of the data set: Upland soil application test, crop injury soybean. As to conditions: soil application one day after seeding, 50 g ai/a, wettable powder, fresh weight on 50th day after spray. Format: in vivo. The method, then:
as §5

Data set [10] relates to Cotton (Gossypium indicum). Nature of the data set: Upland soil application test, crop injury cotton. Format: in vivo. To be noted: soil application one day after seeding, 50 g ai/a, wettable powder, fresh weight on 50th day after spray. The method, then:
as §5

The test system of data set [11] is Amaranth (Amaranthus viridis). Briefly: Upland foliar application test, amaranth. As to conditions: 960 h, foliar application at stage of 2-3 leaves, 50 g ai/a, emulsion, 40th day after spray, read-out: Herbicidal effects Amaranth (Amaranthus viridis). It is filed as in vivo. The method, then:
as §5
(§6) Resin-made 1/1000-are pots were filled with the soil of an upland field. After they were fertilized, cotton and soybean were seeded and 3 cm soil covering was applied. Five days later, amaranth, common lambsquarters, barnyardgrass, green foxtail, large crabgrass and johnsongrass were seeded and 1 cm soil covering was applied. They were allowed to grow in a green house. When each plant grew to the stage of 2-3 leaves, an emulsion formulated from a predetermined amount of each test compound in a similar manner to the procedures described in Formulation Example 11 was diluted with water and then sprayed at a predetermined application rate by means of a pressure-operated sprayer. The application rate was controlled at 5 l per are. Influence to the crops and weeds were observed on the 40th day after the spray of the herbicides. The results are shown in Table 4 in which the degree of damages of each test plant and the degree of injury to each crop are shown in a similar manner to Test 2.

Data set [12] concerns common lambsquarters. Nature of the data set: Upland foliar application test, common lambsquarters. To be noted: Chenopodium album, 960 h; foliar application at stage of 2-3 leaves, 50 g ai/a, emulsion, 40th day after spray; read-out: Herbicidal effects Common lambquarters. It is filed as in vivo. The method, then: as §6
The subject of data set [13] is Barnyardgrass (Echinochloa crusgalli). Nature of the data set: Upland foliar application test, barnyardgrass. Format: in vivo. To be noted: Echinochloa crus-galli, 960 h; foliar application at stage of 2-3 leaves, 50 g ai/a, emulsion, 40th day after spray; read-out: Herbicidal effects Barnyardgrass (Echinochloa crusgalli). The method, then: as §6
For data set [14], the system named is Foxtail (Setaria viridis). Briefly: Upland foliar application test, green foxtail. It is filed as in vivo. To be noted: 960 h, foliar application at stage of 2-3 leaves, 50 g ai/a, emulsion, 40th day after spray, read-out: Herbicidal effects Foxtail (Setaria viridis). The method, then:
as §5, §6

Data set [15] deals with Crabgrass (Digitaria adscendens). Briefly: Upland foliar application test, large crabgrass. Format: in vivo. As to conditions: 960 h, foliar application at stage of 2-3 leaves, 50 g ai/a, emulsion, 40th day after spray, read-out: Herbicidal effects Crabgrass (Digitaria adscendens). The method, then:
as §5, §6

The test system of data set [16] is Johnsongrass. Nature of the data set: Upland foliar application test, johnsongrass. It is filed as in vivo. To be noted: Sorghum halepense, 960 h; foliar application at stage of 2-3 leaves, 50 g ai/a, emulsion, 40th day after spray; read-out: Herbicidal effects Johnsongrass. The method, then: as §6
Data set [17] has as its system Soybean (Glycine max). Briefly: Upland foliar application test, crop injury soybean. It is filed as in vivo. As to conditions: foliar application at stage of 2-3 leaves, 50 g ai/a, emulsion, 40th day after spray. How it is done: as §6
For data set [18], the system named is Cotton (Gossypium indicum). Briefly: Upland foliar application test, crop injury cotton. Format: in vivo. To be noted: foliar application at stage of 2-3 leaves, 50 g ai/a, emulsion, 40th day after spray. How it is done: as §5, §6
Data set [19] concerns johnsongrass emerging from rhizome. Briefly: Application test on johnsongrass emerging from rhizome. Format: in vivo. As to conditions: foliar application at stage of 4-5 leaves, application rate of active ingredient 20 (unit not given), emulsion, 50th day after spray. The method, then:
as §5
Resin-made 1/1000-are pots were filled with the soil of an upland field. After they were fertilized, rhizome of johnsongrass were transplanted to the pots and 3 cm soil covering was applied. They were allowed to grow in a green house. When each johnsongrass grew to the stage of 4-5 leaves, an emulsion formulated from a predetermined amount of each test compound in a similar manner to the procedures described in Formulation Example 11 was diluted with water and then sprayed at a predetermined application rate by means of a pressure-operated sprayer. The application rate was controlled at 5 l per are. The effect of each compound against the johnsongrass emerging from its rhizome was observed on the 50th day after the spray of the herbicides. The results are shown in Table 5 in which the herbicidal effect against johnsongrass is shown in a similar manner to Test 2.

Structures are written as SMILES.

`CCCCCCCCOC(OCCCCCCCC)c1ccccc1Oc1nc(OC)cc(OC)n1` [Compound No. 7, 2-(4,6-dimethoxypyrimidin-2-yloxy)benzaldehyde di-n-octylacetal]: the “Enzymoreaction inhibition rate (%) Barnyardgrass” value in data set [1] was found to be 100%. Also, in data set [2], the “Enzymoreaction inhibition rate (%) Pea” value worked out at 0%. In addition, the pest or weed control at 5000 g/ha in data set [3] worked out at 80%; with common lambsquarters [4], 85%; in data set [5], 85%; in data set [6], 90%; in [7], 80%; with Johnsongrass [8] it was 100%. In addition, the pest or weed control at 5000 g/ha came to 90% in data set [11]; 85% in the data set on common lambsquarters [12]; 95% in data set [13]; 90% in [14]; 90% in [15]; 100% in the data set with Johnsongrass [16]. In addition, the “Crop injury Soybean (Glycine max)” value with Soybean (Glycine max) [9] and with Soybean (Glycine max) [17] was 0% throughout. Further, the “Crop injury Cotton (Gossypium indicum)” value in data set [10] and in data set [18] was 0% throughout. Further, in [19], the “Herbicidal effect against johnsongrass emerging from rhizome” value (shortened to “Herbicidal effect”) is 80%.

With `COc1cc(OC)nc(Oc2c(Cl)cccc2C(OC)OC)n1` [Comp. Comp'd E, reference compound], the pest or weed control at 5000 g/ha was found to be 45% in data set [3]; 50% in the data set on common lambsquarters [4]; 55% in [5]; 60% in [6]; 60% in data set [7]; 35% in the data set with Johnsongrass [8]. Besides, the pest or weed control at 5000 g/ha in data set [11] was 60%; with common lambsquarters [12], 65%; in data set [13], 65%; in data set [14], 50%; in data set [15], 45%; in the data set on Johnsongrass [16], 30%. The “Crop injury Soybean (Glycine max)” value with Soybean (Glycine max) [9] and in the data set on Soybean (Glycine max) [17] was 30% in each case. For the same compound, the “Crop injury Cotton (Gossypium indicum)” value in data set [10] and in data set [18] was 30% in each case. Besides, the “Herbicidal effect” value in data set [19] was 5%.

Take `COc1cc(OC)nc(Oc2ccccc2C(OC)OC)n1` [Comp. Comp'd C, 2-(4,6-dimethoxypyrimidin-2-yloxy)benzaldehyde dimethylacetal, reference compound]: the pest or weed control at 5000 g/ha stood at 80% in data set [3]; 100% in the data set with common lambsquarters [4]; 100% in data set [5]; 100% in data set [6]; 100% in data set [7]; 100% in the data set on Johnsongrass [8]. For the same compound, the pest or weed control at 5000 g/ha in data set [11] turned out to be 100%; in the data set on common lambsquarters [12] it was 90%; in [13], 100%; in data set [14], 95%; in [15] it was 90%; with Johnsongrass [16], 100%. Besides, the “Crop injury Soybean (Glycine max)” value in the data set on Soybean (Glycine max) [9] is 50%; in the data set on Soybean (Glycine max) [17] it was 40%. For the same compound, the “Crop injury Cotton (Gossypium indicum)” value in [10] is reported as 55%; in data set [18] it was 50%. Moreover, in data set [19], the “Herbicidal effect” value came to 40%.

Take `CCOC(OCC)c1ccccc1Oc1nc(OC)cc(OC)n1` [Comp. Comp'd D, 2-(4,6-dimethoxypyrimidin-2-yloxy)benzaldehyde diethylacetal, reference compound]: the pest or weed control at 5000 g/ha came out at 100% in data set [3]; 100% in the data set on common lambsquarters [4]; 100% in data set [5]; 100% in data set [6]; 85% in data set [7]; 100% in the data set on Johnsongrass [8]. Also, the pest or weed control at 5000 g/ha in [11] came out at 100%; with common lambsquarters [12], 90%; in [13] it was 100%; in [14], 95%; in data set [15], 90%; in the data set with Johnsongrass [16] it was 100%. For the same compound, the “Crop injury Soybean (Glycine max)” value is on record as 40% in the data set with Soybean (Glycine max) [9] and 35% with Soybean (Glycine max) [17]. For the same compound, the “Crop injury Cotton (Gossypium indicum)” value was 45% in data set [10] and 35% in data set [18]. The “Herbicidal effect” value in data set [19] is listed as 50%.
